Drawing on patent US11236046B2, “Substituted heterocyclic sulfonamide compounds useful as TRPA1 modulators” (Genentech, Inc., priority 2013, dated 2022), this text covers IC50 for 26 compounds.

pIC50: −log10 of the molar value.

This test deals with human TRPA1 (Homo sapiens (Human), UniProt O75762). The test is described as follows: IC50 determination on the human TRPA1 channel, calcium fluorescence (Hamamatsu FDSS plate reader). The test is classed as cell-based. The settings on record: CHO cells expressing human TRPA1; block of cinnamaldehyde induced calcium influx; 20 minutes compound incubation; Hill coefficient fixed to 1.5; read-out: hTRPA1 AUC IC50. The method, then: IC50s (effective concentration) of compounds on the human TRPA1 channel were determined using a Hamamatsu FDSS fluorescence plate reader. CHO cells expressing human TRPA1 were plated into 384-well plates, incubated overnight at 37 C, and loaded with BD calcium indicator dye for 1 hr at 37° C. followed by 15 minutes. at room temperature. The assay buffer was Hank's Balanced Salt Solution (HBSS) containing 20 mM HEPES (pH readjusted to 7.4) along with 0.02% BSA.
Sequence of human TRPA1 (O75762 whole entry): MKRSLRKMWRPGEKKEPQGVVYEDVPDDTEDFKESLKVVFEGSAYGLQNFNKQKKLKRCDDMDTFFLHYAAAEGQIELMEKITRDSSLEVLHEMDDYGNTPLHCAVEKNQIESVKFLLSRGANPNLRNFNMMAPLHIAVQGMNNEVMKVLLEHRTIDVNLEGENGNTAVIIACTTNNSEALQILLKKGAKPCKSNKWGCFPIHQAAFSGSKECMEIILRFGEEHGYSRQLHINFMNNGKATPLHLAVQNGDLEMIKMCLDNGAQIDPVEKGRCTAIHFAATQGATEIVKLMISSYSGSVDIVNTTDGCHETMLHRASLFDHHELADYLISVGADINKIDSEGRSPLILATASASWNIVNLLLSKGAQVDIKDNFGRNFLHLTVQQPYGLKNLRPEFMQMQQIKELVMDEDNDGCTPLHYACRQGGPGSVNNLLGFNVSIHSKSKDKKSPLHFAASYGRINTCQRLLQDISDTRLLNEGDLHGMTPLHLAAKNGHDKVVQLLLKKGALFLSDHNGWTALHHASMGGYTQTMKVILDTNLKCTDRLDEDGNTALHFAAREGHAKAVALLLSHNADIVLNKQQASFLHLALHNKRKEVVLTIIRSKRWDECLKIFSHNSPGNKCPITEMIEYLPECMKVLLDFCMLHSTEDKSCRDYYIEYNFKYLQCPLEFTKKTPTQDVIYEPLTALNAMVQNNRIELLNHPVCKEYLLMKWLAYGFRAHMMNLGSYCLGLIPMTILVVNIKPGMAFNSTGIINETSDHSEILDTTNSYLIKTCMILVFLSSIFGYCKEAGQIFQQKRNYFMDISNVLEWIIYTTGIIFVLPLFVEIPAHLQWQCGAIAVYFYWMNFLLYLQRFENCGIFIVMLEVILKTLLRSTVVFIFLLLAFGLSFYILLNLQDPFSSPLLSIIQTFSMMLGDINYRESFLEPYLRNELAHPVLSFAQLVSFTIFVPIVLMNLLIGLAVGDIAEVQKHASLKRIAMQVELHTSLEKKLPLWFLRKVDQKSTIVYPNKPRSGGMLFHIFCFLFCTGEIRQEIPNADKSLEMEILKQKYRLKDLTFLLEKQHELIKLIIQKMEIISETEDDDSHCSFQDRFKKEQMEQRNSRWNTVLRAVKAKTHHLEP
Following dye load and plate cool down, compounds were added to the cells using the FDSS while monitoring fluorescence to determine whether any of the test compounds have TRPA1 agonist activity. Plates were then incubated with compound for 20 minutes at room temperature prior to adding agonist. Following this incubation, […] cinnamaldehyde was added to all wells of the plate and block of this cinnamaldehyde induced calcium influx was measured.
Fixing the Hill coefficient will generally reduce variability of the IC50 determination. The IC50s were examined by eye to make sure the MIN and MAX points were set correctly prior to validation of the results.
Broadly, the pIC50 is the IC50 on a negative log10 scale, so that one unit is a factor of ten. On to `O=C(NCc1cc(-c2ccc(C(F)(F)F)cc2)ncn1)[C@@H]1C[C@@H](F)CN1S(=O)(=O)c1ccc(F)c(F)c1` [Example 26, (2S,4R)-1-(3,4-difluorophenylsulfonyl)-4-fluoro-N-((6-(4-(trifluoromethyl)phenyl)pyrimidin-4-yl)methyl)pyrrolidine-2-carboxamide], for which the pIC50 is 7.52.

`O=C(NCc1cc(-c2ccc(C(F)(F)F)nc2)ncn1)[C@@H]1[C@@H](F)CCN1S(=O)(=O)c1ccc(F)cc1` [Example 35, (2R,3S)-3-fluoro-1-(4-fluorophenylsulfonyl)-N-((6-(6-(trifluoromethyl)pyridin-3-yl)pyrimidin-4-yl)methyl)pyrrolidine-2-carboxamide]: the pIC50 was 7.64.

`N#C[C@@]1(C(=O)NCc2cc(-c3ccc(C(F)(F)F)nc3)ncn2)CCCN1S(=O)(=O)c1ccc(F)cc1` [Example 32, (R)-2-cyano-1-(4-fluorophenylsulfonyl)-N-((6-(6-(trifluoromethyl)pyridin-3-yl)pyrimidin-4-yl)methyl)pyrrolidine-2-carboxamide]: the pIC50 is 6.06.

Take `O=C(NCc1cc(-c2ccc(SC(F)(F)F)cc2)ncn1)[C@@H]1C[C@@H](F)CN1S(=O)(=O)c1ccc(F)cc1` [Example 29, (2S,4R)-4-fluoro-1-(4-fluorophenylsulfonyl)-N-((6-(4-(trifluoromethylthio)phenyl)pyrimidin-4-yl)methyl)pyrrolidine-2-carboxamide]: the pIC50 was 7.49.

With `O=C(NCc1cc(-c2ccc(C3CC3)nc2)ncn1)[C@@H]1C[C@@H](F)CN1S(=O)(=O)c1ccc(F)cc1` [Example 23, (2S,4R)—N-((6-(6-cyclopropylpyridin-3-yl)pyrimidin-4-yl)methyl)-4-fluoro-1-(4-fluorophenylsulfonyl)pyrrolidine-2-carboxamide], the pIC50 is 5.57.

With `C[C@@]1(C(=O)NCc2cc(-c3ccc(C(F)(F)F)nc3)ncn2)CCN1S(=O)(=O)c1ccc(F)cc1` [Example 2, (S)-1-(4-fluorophenylsulfonyl)-2-methyl-N-((6-(6-(trifluoromethyl)pyridin-3-yl)pyrimidin-4-yl)methyl)azetidine-2-carboxamide], the pIC50 was 7.23.

Consider `O=C(NCc1cc(-c2ccc(C(F)(F)F)cc2)ncn1)[C@@H]1C[C@@H](F)CN1S(=O)(=O)c1cccc(F)c1` [Example 6, (2S,4R)-4-fluoro-1-(3-fluorophenylsulfonyl)-N-((6-(4-(trifluoromethyl)phenyl)pyrimidin-4-yl)methyl)pyrrolidine-2-carboxamide], for which the pIC50 was 7.64.

In the case of `O=C(NCc1cc(-c2ccc(C(F)(F)F)nc2)ncn1)[C@@H]1C[C@@H](F)CN1S(=O)(=O)c1ccc(F)cc1` [Example 3, (2S,4R)-4-fluoro-1-(4-fluorophenylsulfonyl)-N-((6-(6-(trifluoromethyl)pyridin-3-yl)pyrimidin-4-yl)methyl)pyrrolidine-2-carboxamide], the pIC50 is 7.01.

Regarding `O=C(NCc1cn(-c2ccc(C(F)(F)F)cc2)nc1Cl)[C@@H]1C[C@@H](F)CN1S(=O)(=O)c1ccc(F)cc1` [Example 16, (2S,4R)—N-([3-chloro-1-[4-(trifluoromethyl)phenyl]-1H-pyrazol-4-yl]methyl)-4-fluoro-1-[(4-fluorobenzene)sulfonyl]pyrrolidine-2-carboxamide], the pIC50 was 8.10.

Turning to `C[C@@]1(C(=O)NCc2cc(-c3ccc(C(F)(F)F)cc3)ncn2)C[C@@H](F)CN1S(=O)(=O)c1ccc(F)cc1` (single isomer, unassigned) [Example 20], the pIC50 is 8.15.

Turning to `O=C(NCc1cc(-c2ccc(C(F)(F)F)nc2)c(F)cn1)[C@@H]1C[C@@H](F)CN1S(=O)(=O)c1ccc(F)cc1` [Example 9, (2S,4R)-4-fluoro-N-((5′-fluoro-6-(trifluoromethyl)-3,4′-bipyridin-2′-yl)methyl)-1-(4-fluorophenylsulfonyl)pyrrolidine-2-carboxamide], the pIC50 is 7.70.

For the compound `COC[C@@]1(C(=O)NCc2cc(-c3ccc(C(F)(F)F)nc3)ncn2)CCCN1S(=O)(=O)c1ccc(F)cc1` [Example 30, (R)-1-(4-fluorophenylsulfonyl)-2-(methoxymethyl)-N-((6-(6-(trifluoromethyl)pyridin-3-yl)pyrimidin-4-yl)methyl)pyrrolidine-2-carboxamide], the pIC50 was 6.60.

For the compound `O=C(NCc1cc(-c2ccc(C(F)(F)F)nc2)ncn1)[C@@H]1C[C@H](F)CN1S(=O)(=O)c1ccc(F)cc1` [Example 4, (2S,4S)-4-fluoro-1-(4-fluorophenylsulfonyl)-N-((6-(6-(trifluoromethyl)pyridin-3-yl)pyrimidin-4-yl)methyl)pyrrolidine-2-carboxamide], the pIC50 was 6.09.

With `O=C(NCc1cc(-c2ccc(C(F)(F)F)cc2)ncn1)[C@@H]1C[C@@H](F)CN1S(=O)(=O)c1ccc(F)cc1` [Example 5, (2S,4R)-4-fluoro-1-(4-fluorophenylsulfonyl)-N-((6-(4-(trifluoromethyl)phenyl)pyrimidin-4-yl)methyl)pyrrolidine-2-carboxamide], the pIC50 is 7.82.

Take `O=C(NCc1cc(-c2ccc(C3CC3)cc2)ncn1)[C@@H]1C[C@@H](F)CN1S(=O)(=O)c1ccc(F)cc1` [Example 10, (2S,4R)—N-((6-(4-cyclopropylphenyl)pyrimidin-4-yl)methyl)-4-fluoro-1-(4-fluorophenylsulfonyl)pyrrolidine-2-carboxamide]: the pIC50 is 6.97.

As to `O=C(NCc1cc(-c2ccc(C(F)(F)F)nc2)ncn1)[C@@H]1[C@H](F)CCN1S(=O)(=O)c1ccc(F)cc1` [Example 36, (2R,3R)-3-fluoro-1-(4-fluorophenylsulfonyl)-N-((6-(6-(trifluoromethyl)pyridin-3-yl)pyrimidin-4-yl)methyl)pyrrolidine-2-carboxamide], the pIC50 was 6.92.

With `O=C(NCc1cn(-c2ccc(C(F)(F)F)nc2)nc1C1CC1)[C@@H]1C[C@@H](F)CN1S(=O)(=O)c1ccc(F)cc1` [Example 17, (2S,4R)—N-([3-cyclopropyl-1-[6-(trifluoromethyl)pyridin-3-yl]-1H-pyrazol-4-yl]methyl)-4-fluoro-1-[(4-fluorobenzene)sulfonyl]pyrrolidine-2-carboxamide], the negative logarithm of the IC50 (pIC50) was 7.26.

Take `O=C(NCc1cc(-c2ccc(C(F)(F)F)cc2)ncn1)[C@@H]1C[C@@H](F)CN1S(=O)(=O)c1cncc(F)c1` [Example 28, (2S,4R)-4-fluoro-1-(5-fluoropyridin-3-ylsulfonyl)-N-((6-(4-(trifluoromethyl)phenyl)pyrimidin-4-yl)methyl)pyrrolidine-2-carboxamide]: the pIC50 was 6.64.

As to `N#Cc1ccc(S(=O)(=O)N2C[C@H](F)C[C@H]2C(=O)NCc2cn(-c3ccc(C(F)(F)F)cc3)nc2Cl)cc1` [Example 18, (2S,4R)—N-([3-chloro-1-[4-(trifluoromethyl)phenyl]-1H-pyrazol-4-yl]methyl)-1-[(4-cyanobenzene)sulfonyl]-4-fluoropyrrolidine-2-carboxamide], the pIC50 was 7.31.

Take `O=C(NCc1cc(C2=CCC(C(F)(F)F)CC2)ncn1)[C@@H]1C[C@@H](F)CN1S(=O)(=O)c1ccc(F)cc1` (stereo partly drawn) [Example 12, (2S,4R)-4-fluoro-1-(4-fluorophenylsulfonyl)-N-((6-(4-(trifluoromethyl)cyclohex-1-enyl)pyrimidin-4-yl)methyl)pyrrolidine-2-carboxamide]: the pIC50 is 7.52.

Regarding `O=C(NCc1cc(-c2ccc(C(F)(F)F)nc2)ncn1)[C@@H]1C[C@@H](F)CN1S(=O)(=O)c1ccc(F)c(F)c1` [Example 25, (2S,4R)-1-(3,4-difluorophenylsulfonyl)-4-fluoro-N-((6-(6-(trifluoromethyl)pyridin-3-yl)pyrimidin-4-yl)methyl)pyrrolidine-2-carboxamide], the pIC50 was 6.90.

As for `O=C(NCc1cc(-c2ccc(C(F)(F)F)cc2)ncn1)[C@@H]1[C@H]2CC[C@H](C2)N1S(=O)(=O)c1ccc(F)cc1` [Example 33, (1R,3S,4S)-2-(4-fluorophenylsulfonyl)-N-((6-(4-(trifluoromethyl)phenyl)pyrimidin-4-yl)methyl)-2-azabicyclo[2.2.1]heptane-3-carboxamide], the negative logarithm of the IC50 (pIC50) is 7.64.

Regarding `O=C(NCc1cc(N2CCC(C(F)(F)F)CC2)c(F)cn1)[C@@H]1C[C@@H](F)CN1S(=O)(=O)c1ccc(F)cc1` [Example 37, (2S,4R)-4-fluoro-N-((5-fluoro-4-(4-(trifluoromethyl)piperidin-1-yl)pyridin-2-yl)methyl)-1-(4-fluorophenylsulfonyl)pyrrolidine-2-carboxamide], the pIC50 is 7.68.

Take `O=C(NCc1cn(-c2ccc(C(F)(F)F)nc2)nc1Cl)[C@@H]1C[C@@H](F)CN1S(=O)(=O)c1ccc(F)cc1` [Example 15, (2S,4R)—N-([3-chloro-1-[6-(trifluoromethyl)pyridin-3-yl]-1H-pyrazol-4-yl]methyl)-4-fluoro-1-[(4-fluorobenzene)sulfonyl]pyrrolidine-2-carboxamide]: the pIC50 was 7.52.

`O=C(NCc1cc(-c2ccc(C(F)(F)F)nc2)ncn1)[C@@H]1C[C@@H](F)CN1S(=O)(=O)c1cncc(F)c1` [Example 27, (2S,4R)-4-fluoro-1-(5-fluoropyridin-3-ylsulfonyl)-N-((6-(6-(trifluoromethyl)pyridin-3-yl)pyrimidin-4-yl)methyl)pyrrolidine-2-carboxamide]: the pIC50 is 5.52.

For `O=C(NCc1cc(-c2ccc(C(F)(F)F)nc2)ncn1)[C@]1(CO)CCCN1S(=O)(=O)c1ccc(F)cc1` [Example 7, (R)-1-(4-fluorophenylsulfonyl)-2-(hydroxymethyl)-N-((6-(6-(trifluoromethyl)pyridin-3-yl)pyrimidin-4-yl)methyl)pyrrolidine-2-carboxamide], the pIC50 was 6.55.
